Bounds are passed on as bounds.

T1 sequence (P14902 whole entry): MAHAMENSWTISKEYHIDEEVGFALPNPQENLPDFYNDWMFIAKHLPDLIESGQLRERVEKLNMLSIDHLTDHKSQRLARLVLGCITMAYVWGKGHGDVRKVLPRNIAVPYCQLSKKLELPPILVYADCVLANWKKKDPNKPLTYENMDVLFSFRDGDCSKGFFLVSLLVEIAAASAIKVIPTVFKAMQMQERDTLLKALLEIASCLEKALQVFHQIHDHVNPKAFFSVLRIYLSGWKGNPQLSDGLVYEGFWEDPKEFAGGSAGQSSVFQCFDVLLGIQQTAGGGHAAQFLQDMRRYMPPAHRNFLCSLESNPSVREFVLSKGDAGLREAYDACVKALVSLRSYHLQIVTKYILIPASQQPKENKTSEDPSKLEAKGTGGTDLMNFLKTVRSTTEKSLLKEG

The assay has as its target T1, human IDO1 (Homo sapiens, UniProt P14902).
T1 construct: expressed in transfected cells
Nature of the assay: HEK293 human IDO1 cell-based IDO inhibition assay. To be noted: read-out: HEK Human IDO-1 Potency. As to the method: 1HEK293 cells were transfected with a pCDNA-based mammalian expression vector harboring human IDO1 cDNA (NM 002164.2) by electroporation. They were cultured in medium (DMEM with 10% FBS) containing 1 mg/ml G418 for two weeks. Clones of HEK293 cells that stably expressed human IDO1 protein were selected and expanded for IDO inhibition assay.
The human IDOL/HEK293 cells were seeded at 10,000 cells per 50 μL per well with RPMI/phenol red free media contains 10% FBS in a 384-well black wall clear bottom tissue culture plate (Matrix Technologies LLC) 100 nL of certain concentration of compound was then added to each well using ECHO liquid handling systems. The cells were incubated for 20 hours in 37° C. incubator with 5% CO2.
The compound treatments were stopped by adding Trichloroacetic Acid (Sigma-Aldrich) to a final concentration at 0.2%. The cell plate was further incubated at 50° C. for 30 minute. The equal volume supernatant (20 μL) and 0.2% (w/v) Ehrlich reagent (4-dimethylaminobenzaldehyde, Sigma-Aldrich) in glacial acetic acid were mixed in a new clear bottom 384-well plate. This plate was then incubated at room temperature for 30 minute. The absorbance at 490 nm was measured on Envision plate reader.
For `C[C@@H](C(=O)Nc1ccc(Cl)cc1)[C@H]1CC[C@@H](c2ccnc3c2ncn3C)CC1` (single isomer, unassigned) [Example 251d, N-(4-chlorophenyl)-2-(4-(3-methyl-3H-imidazo[4,5-b]pyridin-7-yl)cyclohexyl)propanamide], the IC50 is > 250 nM. With `CC(C(=O)Nc1ccc(F)cc1)N1CCC(Oc2ccnc3ccc(F)cc23)CC1` (single isomer, unassigned) [compound 105], the IC50 is < 50 nM. In the case of `CC(C(=O)Nc1ccc(F)cc1)N1CCC(Oc2ccnc3ccc(F)cc23)CC1` (single isomer, unassigned) [compound 106] it was > 250 nM; in that of `Cc1ccc(NC(=O)C(C)N2CCC(Oc3ccnc4ccc(F)cc34)CC2)cc1` (single isomer, unassigned) [compound 109], < 50 nM. Next, `Cc1ccc(NC(=O)C(C)N2CCC(Oc3ccnc4ccc(F)cc34)CC2)cc1` (single isomer, unassigned) [compound 110]: > 250 nM. In the case of `C[C@@H](C(=O)Nc1ccccc1)[C@H]1CC[C@@H](c2ccnc3ccc(F)cc32)CC1` [Example 58, (R)-2-((cis)-4-(6-fluoroquinolin-4-yl)cyclohexyl)-N-phenylpropanamide] it was < 50 nM; in that of `Cc1cc(F)ccc1NC(=O)[C@H](C)[C@H]1CC[C@@H](c2ccnc3ccc(F)cc32)CC1` [Example 59, (R)-N-(4-fluoro-2-methylphenyl)-2-((cis)-4-(6-fluoroquinolin-4-yl)cyclohexyl)propanamide], > 250 nM; in that of `C[C@@H](C(=O)Nc1ccc(C(F)(F)F)cc1)[C@H]1CC[C@@H](c2ccnc3ccc(F)cc32)CC1` [Example 60, (R)-2-((cis)-4-(6-fluoroquinolin-4-yl)cyclohexyl)-N-(4-(trifluoromethyl)phenyl)propanamide], < 50 nM. On to `C[C@@H](C(=O)Nc1ccc2c(c1)OC(F)(F)O2)[C@H]1CC[C@@H](c2ccnc3ccc(F)cc32)CC1` [Example 61, (R)-N-(2,2-difluorobenzo[d][1,3]dioxol-5-yl)-2-((cis)-4-(6-fluoroquinolin-4-yl)cyclohexyl)propanamide], for which the IC50 was < 50 nM.

Regarding `CCOc1ccccc1NC(=O)[C@H](C)[C@H]1CC[C@@H](c2ccnc3ccc(F)cc32)CC1` [Example 62, (R)-N-(2-ethoxyphenyl)-2-((cis)-4-(6-fluoroquinolin-4-yl)cyclohexyl)propanamide], the IC50 was < 250 nM. Next, `Cc1cc(Cl)ccc1NC(=O)[C@H](C)[C@H]1CC[C@@H](c2ccnc3ccc(F)cc32)CC1` [Example 64, (R)-N-(4-chloro-2-methylphenyl)-2-((cis)-4-(6-fluoroquinolin-4-yl)cyclohexyl)propanamide]: < 250 nM; `C[C@@H](C(=O)Nc1cccc(Cl)c1)[C@H]1CC[C@@H](c2ccnc3ccc(F)cc32)CC1` [Example 65, (R)-N-(3-chloropehnyl)-2-((cis)-4-(6-fluoroqinolin-4-yl)cyclohexyl)propanamide]: < 50 nM; `C[C@@H](C(=O)Nc1ccc(Cl)c(Cl)c1)[C@H]1CC[C@@H](c2ccnc3ccc(F)cc32)CC1` [Example 66, (R)-N-(3,4-dichlorophenyl)-2-((cis)-4-(6-fluoroquinolin-4-yl)cyclohexyl)propanamide]: < 50 nM. On to `COC(=O)c1cccc(NC(=O)[C@H](C)[C@H]2CC[C@@H](c3ccnc4ccc(F)cc43)CC2)c1` [Example 67, methyl 3-((R)-2-((cis)-4-(6-fluoroquinolin-4-yl)cyclohexyl)propanamido)benzoate], for which the IC50 was < 50 nM. Next, `COC(=O)c1ccc(NC(=O)[C@H](C)[C@H]2CC[C@@H](c3ccnc4ccc(F)cc43)CC2)cc1` [Example 68, methyl 4-((R)-2-((cis)-4-(6-fluoroquinolin-4-yl)cyclohexyl)propanamido)benzoate]: < 50 nM. Next, `C[C@@H](C(=O)N(C)c1ccccc1)[C@H]1CC[C@@H](c2ccnc3ccc(F)cc32)CC1` [Example 69, (R)-2-((cis)-4-(6-fluoroquinolin-4-yl)cyclohexyl)-N-methyl-N-phenylpropanamide]: > 250 nM; `C[C@@H](C(=O)Nc1cccc(C(F)(F)F)c1)[C@H]1CC[C@@H](c2ccnc3ccc(F)cc32)CC1` [Example 70, (R)-2-((cis)-4-(6-fluoroquinolin-4-yl)cyclohexyl)-N-(3-(trifluoromethyl)phenyl)propanamide]: < 50 nM. In the case of `C[C@@H](C(=O)Nc1ccc(Oc2ccccc2)cc1)[C@H]1CC[C@@H](c2ccnc3ccc(F)cc32)CC1` [Example 71, (R)-2-((cis)-4-(6-fluoroquinolin-4-yl)cyclohexyl)-N-(4-phenoxyphenyl)propanamide] it was < 50 nM. Consider `Cc1cccc(NC(=O)[C@H](C)[C@H]2CC[C@@H](c3ccnc4ccc(F)cc43)CC2)c1` [Example 72, (R)-2-((cis)-4-(6-fluoroquinolin-4-yl)cyclohexyl)-N-(m-tolyl)propanamide], for which the IC50 is < 50 nM. With `C[C@@H](C(=O)Nc1cccc(Oc2ccccc2)c1)[C@H]1CC[C@@H](c2ccnc3ccc(F)cc32)CC1` [Example 73, (R)-2-((cis)-4-(6-fluoroquinolin-4-yl)cyclohexyl)-N-(3-phenoxyphenyl)propanamide], the IC50 was < 250 nM. Next, `C[C@@H](C(=O)Nc1ccccc1Oc1ccccc1)[C@H]1CC[C@@H](c2ccnc3ccc(F)cc32)CC1` [Example 73a, (R)-2-((cis)-4-(6-fluoroquinolin-4-yl)cyclohexyl)-N-(2-phenoxyphenyl)propanamide]: > 250 nM; `C[C@@H](C(=O)Nc1ccncc1)[C@H]1CC[C@@H](c2ccnc3ccc(F)cc32)CC1` [Example 74, (R)-2-((cis)-4-(6-fluoroquinolin-4-yl)cyclohexyl)-N-(pyridin-4-yl)propanamide]: < 50 nM. Next, `C[C@@H](C(=O)Nc1nccs1)[C@H]1CC[C@@H](c2ccnc3ccc(F)cc32)CC1` [Example 75, (R)-2-((cis)-4-(6-fluoroquinolin-4-yl)cyclohexyl)-N-(thiazol-2-yl)propanamide]: < 250 nM; `C[C@@H](C(=O)Nc1cccnc1)[C@H]1CC[C@@H](c2ccnc3ccc(F)cc32)CC1` [Example 76, (R)-2-((cis)-4-(6-fluoroquinolin-4-yl)cyclohexyl)-N-(pyridin-3-yl)propanamide]: < 50 nM. Next, `C[C@@H](C(=O)Nc1ccccc1F)[C@H]1CC[C@@H](c2ccnc3ccc(F)cc32)CC1` [Example 77, (R)-N-(2-fluorophenyl)-2-((cis)-4-(6-fluoroquinolin-4-yl)cyclohexyl)propanamide]: < 50 nM; `CCOc1ccc(NC(=O)[C@H](C)[C@H]2CC[C@@H](c3ccnc4ccc(F)cc43)CC2)cc1` [Example 78, (R)-N-(4-ethoxyphenyl)-2-((cis)-4-(6-fluoroquinolin-4-yl)cyclohexyl)propanamide]: < 50 nM; `C[C@@H](C(=O)Nc1cccc(C#N)c1)[C@H]1CC[C@@H](c2ccnc3ccc(F)cc32)CC1` [Example 79, (R)-N-(3-cyanophenyl)-2-((cis)-4-(6-fluoroquinolin-4-yl)cyclohexyl)propanamide]: < 250 nM. In the case of `Cc1ccc(NC(=O)[C@H](C)[C@H]2CC[C@@H](c3ccnc4ccc(F)cc43)CC2)cc1Cl` [Example 80, (R)-N-(3-chloro-4-methylphenyl)-2-((cis)-4-(6-fluoroquinolin-4-yl)cyclohexyl)propanamide], the IC50 is < 50 nM.

Regarding `C[C@@H](C(=O)Nc1ccc(C(F)(F)F)c(C#N)c1)[C@H]1CC[C@@H](c2ccnc3ccc(F)cc32)CC1` [Example 82, (R)—N-(3-Cyano-4-(trifluoromethyl)phenyl)-2-((cis)-4-(6-fluoroquinolin-4-yl)cyclohexyl)propanamide], the IC50 was < 250 nM. Next, `CCC(C(=O)Nc1ccc(Cl)cc1)[C@H]1CC[C@H](Oc2ccnc3c(C(F)(F)F)cccc23)CC1` (stereo partly drawn) [Example 86, N-(4-Chlorophenyl)-2-((trans)-4-((8-(trifluoromethyl)quinolin-4-yl)oxy)cyclohexyl)butanamide]: < 50 nM. With `O=C(CN1CCC(Oc2ccc3nccc(Cl)c3c2)CC1)Nc1ccc(Cl)cc1` [Example 90, N-(4-Chlorophenyl)-2-(4-((4-chloroquinolin-6-yl)oxy)piperidin-1-yl)acetamide], the IC50 was > 250 nM.

`O=C(CN1CCC(Oc2ccnc3ccc(F)cc23)CC1)Nc1ccc(Cl)cc1` [Example 95, N-(4-Chlorophenyl)-2-(4-((6-fluoroquinolin-4-yl)oxy)piperidin-1-yl)acetamide]: the IC50 is < 250 nM. Turning to `O=C(CC1CCN(Cc2ccnc3ccccc23)CC1)Nc1ccc(Cl)cc1` [Example 113, N-(4-Chlorophenyl)-2-(1-(quinolin-4-ylmethyl)piperidin-4-yl)acetamide], the IC50 is < 50 nM. Next, `O=C(CC1CCN(Cc2ccnc3ccccc23)CC1)Nc1ccc(F)cc1` [Example 114, N-(4-Fluorophenyl)-2-(1-(quinolin-4-ylmethyl)piperidin-4-yl)acetamide]: < 250 nM; `O=C(CC1CCN(c2ccnc3ccc(F)cc23)CC1)Nc1ccc(F)cc1` [Example 115, N-(4-Fluorophenyl)-2-(1-(6-fluoroquinolin-4-yl)piperidin-4-yl)acetamide]: > 250 nM; `O=C(CC1CCN(c2ccnc3ccc(F)cc23)CC1)Nc1ccc(Cl)cc1` [Example 116]: > 250 nM.

(Values after US20180282281A1, “IMMUNOREGULATORY AGENTS” (FLEXUS BIOSCIENCES, INC., priority 2014, published 2018).)
